One data set relates to C. albicans ATCC 18804. As to conditions: ATCC 18804, 48 h. As for the experimental part: (§1) For the antifungal tests, the strains C. albicans ATCC 90028, C. albicans ATCC 18804 and C. albicans ATCC 10231 were donated by the National Institute of Quality Control in Health (INCQS—Fundação Oswaldo Cruz—Fiocruz, Rio de Janeiro, Brazil). To prepare C. albicans for the tests, the lyophilized microorganism was initially reactivated in Sabouraud Dextrose Broth (Kasvi, Pinhais, Brazil) and incubated at 37 °C for 24 h. Then, the yeasts were seeded in Sabouraud Dextrose Agar and incubated for 48 h at 37 °C. Finally, the stock culture obtained was stored in a refrigerator at 4 °C for 3 months.
(§2) To prepare the standardized suspensions, some colonies of C. albicans stock cultures were seeded in Sabouraud Dextrose Broth and incubated for 24 h at 37 °C. After this time, a small aliquot of the inoculum was transferred to sterile Sabouraud Dextrose Broth to obtain a suspension with optical density (OD) between 0.10 and 0.15 (530 nm), with approximate concentration of 1 × 10^6 CFU mL^−1 [34, 35]. Finally, the suspension was diluted to obtain a concentration of 1 × 10^3 CFU mL^−1, which was used in the tests described below.
(§3) The antifungal activity tests were performed using broth microdilution. The broth microdilution was performed as described in the M27-A3 document of Clinical and Laboratory Standards Institute (CLSI) with modifications. The medium used was Sabouraud Dextrose Broth (SDB). The synthetic peptides were dissolved in a Tris·HCl 10 mM pH 7.2 buffer and added to the plate containing SDB for a final concentration in the first well of 160 µmol L^−1. The cell suspension was prepared as described under “Microorganisms and growth conditions”. This suspension was inoculated on a microdilution plate previously prepared with the peptides diluted in a concentration range from 160 to 0.31 µmol L^−1. The control drug used was fluconazole (FLU), diluted in deionized water. The plates were incubated at 37 °C for 48 h and at the end of the incubation time, the OD in each well was read in a spectrophotometer at 595 nm. The test was performed in triplicate for each of the strains.

A further data set deals with C. albicans ATCC 90028. As to conditions: ATCC 90028, 48 h, 20 µmol L^-1. The procedure:
as §1, §2, §3

A further data set in a line: in vitro. As to conditions: both, human, 10-fold diluted pooled whole saliva supernatant (WSS).
For data set [1] the following is noted: cationic-PAGE; for Time at which the band was no longer observed in the gel (total/complete degradation) / Band of the peptide in the gel at 8 h (in words): 50 µg mL^-1 peptide in 10-fold diluted human WSS; for Peptide remaining (band quantification): 0 h, 50 µg mL^-1 peptide in 10-fold diluted pooled human WSS, Coomassie, Image Lab relative quantity, mean ± SD, duplicate samples.
Experimental: (§4) After an informed consent was obtained from all participants, stimulated whole saliva (WS) samples were collected from healthy, non-smoking adult male and female volunteers ranging from 25 to 39 years old. WS was obtained for three volunteers with good general oral health who were not taking medications that could alter their salivary flow and was performed as described previously in [29, 39]. Salivary secretion was stimulated by chewing a piece of Parafilm wax. WS was collected between 9 and 11 am, at least 2 h after the last meal. The salivary secretion was collected using a collecting tube that was kept on ice until obtaining 5.0 mL. The total volume of collected saliva was centrifuged at 4500× g (Sorvall™ ST 16 Centrifuge—Thermo Fisher Scientific, Waltham, MA, USA) at 4 °C for a period of 30 min to separate bacteria, cells and residues. The total whole saliva pellet and the total whole saliva supernatant (WSS) were separated, and the WSS was pooled and used for the degradation assay.
(§5) To assess and compare proteolysis degradation in the WS environment, all the peptides were added to WSS to observe their degradation over time by cationic-PAGE and HPLC. To investigate the degradation of each peptide, 50 µg mL^−1 of synthetic peptides 0WHst5, WP113, 8WH5, 7WH5 and 6WH5 were added to 10-fold diluted WSS. After 0, 0.5, 1.5, 4, 6, 8, 24 and 48 h of incubation, two aliquots of 100 µL were removed (one for the cationic-PAGE analysis another for HPLC analysis). After that, the aliquots were boiled for 5 min to terminate proteolytic activity. Subsequently the aliquots were diluted in a buffer containing 80% acetonitrile/19.9% H2O/0.1% trifluoroacetic acid, dried using a Vacufuge concentrator (Eppendorf, Westbury, NY, USA) and desalted using ZipTip® Pipette Tips (Merk, Rahway, NJ, USA) to concentrate and purify the samples [29].
(§6) For the cationic-PAGE, the aliquots were dried using a Vacufuge concentrator and resuspended in sample buffer containing 0.04% methyl green (Thermo Fisher Scientific, Waltham, MA, USA) in 40% sucrose. Then, 5 μg of each peptide was used as standard for the test. The stacking and separation gels were polymerized using 100 W incandescent light for 9 min each and the electrophoresis was carried out at a constant voltage of 120 V. The gels were stained with 0.1% Coomassie brilliant blue (w/v), 8% methanol (v/v) and 7% acetic acid (v/v) overnight with agitation. Destaining was carried out with 40% methanol, 10% acetic acid and 50% water (v/v). The extent of degradation was quantified by Image Lab using the relative quantity tool.

The next data set has as its system C. albicans. As to conditions: some species of C. albicans; cited from earlier work. The source says: High levels of Hst5 were found in the saliva of patients with periodontal and oral fungal infections.
The conditions of data set [2]: for HPLC peak of intact peptide after 8 h (in words): 50 µg mL^-1 peptide in 10-fold diluted human WSS, RP-HPLC C18, UV 280 nm; for Time after which the peptide was still found in the samples in whole saliva: abstract, cationic-PAGE and HPLC assays.
Experimental: as §4
To assess and compare proteolysis degradation in the WS environment, all the peptides were added to WSS to observe their degradation over time by cationic-PAGE and HPLC. […] After 0, 0.5, 1.5, 4, 6, 8, 24 and 48 h of incubation, two aliquots of 100 µL were removed (one for the cationic-PAGE analysis another for HPLC analysis). After that, the aliquots were boiled for 5 min to terminate proteolytic activity. Subsequently the aliquots were diluted in a buffer containing 80% acetonitrile/19.9% H2O/0.1% trifluoroacetic acid, dried using a Vacufuge concentrator (Eppendorf, Westbury, NY, USA) and desalted using ZipTip® Pipette Tips (Merk, Rahway, NJ, USA) to concentrate and purify the samples [29].
The aliquots collected for the HPLC analysis were also dried, desalted and resuspended in 30 μL of 10 mM Tris·HCl pH 7.2 buffer solution. Then, 30 µL was analyzed by HPLC in analytical mode using a Waters Symmetry® C18 5 µm, 4.6 × 250 mm reverse phase column (Part No. WAT054275) (Waters, Milford, MA, USA). The solvents used were all chromatographic grade (purchase from Sigma-Aldrich®, St. Louis, MO, USA) and the water used was ultrapure. The chromatographic conditions were solvents A (0.045% TFA/H2O) and B (0.036% TFA/ACN), in a gradient of 5% to 95% B in 30 min, with a flow of 0.53 mL min^−1 at a detector wavelength of 280 nm, using a Waters Alliance 2695 HPLC connected to a Waters 2996 photodiode array detector (Waters, Milford, MA, USA).
Data set [3] concerns C. albicans ATCC 10231 (fluconazole-resistant). As to conditions: fluconazole-resistant strain, Sabouraud Dextrose Broth, 37 °C, 48 h, OD 595 nm, triplicate. As for the experimental part:
as §1, §2, §3

Where two headings read alike, the source gives them in different places. Ends that are not written are not given here.

Experimental for in vitro: as §4, §5, §6

In general, share remaining refers to the share of the starting amount still present when the sample was taken. Read a high share remaining as less turnover. `C[C@H](NC(=O)[C@H](Cc1c[nH]cn1)NC(=O)[C@H](CO)NC(=O)[C@H](CC(=O)O)NC(=O)[C@@H](N)Cc1c[nH]c2ccccc12)C(=O)N[C@@H](CCCCN)C(=O)N[C@@H](CCCNC(=N)N)C(=O)N[C@@H](Cc1c[nH]cn1)C(=O)N[C@@H](Cc1c[nH]cn1)C(=O)NCC(=O)N[C@@H](Cc1ccc(O)cc1)C(=O)N[C@@H](CCCCN)C(=O)N[C@@H](CCCNC(=N)N)C(=O)N[C@@H](CCCCN)C(=O)N[C@@H](Cc1ccccc1)C(=O)N[C@@H](Cc1c[nH]cn1)C(=O)N[C@@H](CCC(=O)O)C(=O)N[C@@H](CCCCN)C(=O)N[C@@H](Cc1c[nH]cn1)C(=O)N[C@@H](Cc1c[nH]cn1)C(=O)N[C@@H](CO)C(=O)N[C@@H](Cc1c[nH]cn1)C(=O)N[C@@H](CCCNC(=N)N)C(=O)NCC(=O)N[C@@H](Cc1ccc(O)cc1)C(=O)O` [Peptide 0WHst5]: the “Inhibition of C. albicans ATCC 18804” value in the data set on C. albicans ATCC 18804 (20 µmol L^-1) is “greater than 80%”. Besides, the “Inhibition of C. albicans ATCC 90028” value with C. albicans ATCC 90028 is recorded as 75%. Also, the fraction remaining at 0.5 h, 50 µg mL^-1 in the data set “in vitro” was determined as 91 ± 17%. The “Time at which the band was no longer observed in the gel (total/complete degradation)” value in data set [1] is on record as ≤ 4 h.
In the case of Histatin 5 [Hst5], in the data set on C. albicans, the “Minimum inhibitory concentration (MIC)” value is 8 to 16 µg/mL.
In the case of WAKRHHGYKRKFH [WP113], the “Inhibition of C. albicans ATCC 90028” value with C. albicans ATCC 90028 is recorded as 76%. Further, in “in vitro”, the amount remaining at 0.5 h, 50 µg mL^-1 was 89.5 ± 7.3% and the share remaining at 4 h, 50 µg mL^-1 came out at 7.23 ± 8.17%. The “HPLC peak of intact peptide after 8 h (in words)” value (“HPLC peak of intact peptide” for short) in data set [2] is on record as “disappeared”. Moreover, in data set [1], the “Peptide remaining (band quantification)” value is reported as 100.0 ± 0.0% and the “Time at which the band was no longer observed in the gel (total/complete degradation)” value was > 4 h.
Regarding WKRHHGY [Peptide 6WH5], in the data set with C. albicans ATCC 18804 (80 µmol L^-1), the “Inhibition of C. albicans ATCC 18804” value is on record as “above 70%”. The “Inhibition of C. albicans ATCC 18804” value in the data set with C. albicans ATCC 18804 (160 µmol L^-1) was “greater than 80%”. Also, in the data set “in vitro”, the share remaining at 0.5 h, 50 µg mL^-1 was 98.8 ± 1.1%; the fraction remaining at 4 h, 50 µg mL^-1 came to 79.3 ± 9.8%; the fraction remaining at 6 h, 50 µg mL^-1 is 52.4 ± 7%; the fraction remaining at 8 h, 50 µg mL^-1 came to 30.6 ± 4%. In “in vitro”, the share remaining at 24 h, 50 µg mL^-1 was 16.5 ± 5.9% and the share remaining at 48 h, 50 µg mL^-1 came out at 8.3 ± 6.2%. Moreover, in data set [2], the “HPLC peak of intact peptide” value is “still detectable” and the “Time after which the peptide was still found in the samples in whole saliva” value (“Time … in whole saliva” below) is on record as ≥ 8 h. Moreover, in data set [1], the “Peptide remaining (band quantification)” value was 100.0 ± 0.0% and the “Band of the peptide in the gel at 8 h (in words)” value (“Band of the peptide in the gel” below) is recorded as “possible to visualize the band”.
Consider WKRHHGYK [Peptide 7WH5], for which the “Inhibition of C. albicans ATCC 10231” value in data set [3] (peptide 160 µmol L^-1) is 90.9%. Further, the “Inhibition of C. albicans ATCC 18804” value in the data set on C. albicans ATCC 18804 (80 µmol L^-1) is on record as “greater than 80%”. In “in vitro”, this molecule displayed an amount remaining at 0.5 h, 50 µg mL^-1 of 100 ± 4.5%; an amount remaining at 4 h, 50 µg mL^-1 of 86.2 ± 3.1%; a fraction remaining at 6 h, 50 µg mL^-1 of 55.9 ± 5.8%; a fraction remaining at 8 h, 50 µg mL^-1 of 49.6 ± 2.4%. Also, in “in vitro”, the amount remaining at 24 h, 50 µg mL^-1 was found to be 19.1 ± 7.5% and the amount remaining at 48 h, 50 µg mL^-1 came to 6.9 ± 1%. For the same molecule, in data set [2], the “HPLC peak of intact peptide” value is “still detectable” and the “Time … in whole saliva” value is on record as ≥ 8 h. Further, in data set [1], the “Peptide remaining (band quantification)” value came out at 100.0 ± 0.0% and the “Band of the peptide in the gel” value is given as “possible to visualize the band”.
On to WKRHHGYKR [Peptide 8WH5], for which, in data set [3] (peptide 40 µmol L^-1), the “Inhibition of growth of C. albicans ATCC 10231” value is recorded as 85%. For the same molecule, the “Inhibition of C. albicans ATCC 18804” value with C. albicans ATCC 18804 (40 µmol L^-1) is “greater than 80%”. In “in vitro”, this molecule had a fraction remaining at 0.5 h, 50 µg mL^-1 of 99.9 ± 8%; a fraction remaining at 4 h, 50 µg mL^-1 of 80.3 ± 13%; a fraction remaining at 6 h, 50 µg mL^-1 of 62 ± 8.4%; a share remaining at 8 h, 50 µg mL^-1 of 44.2 ± 0.9%. Also, in the data set “in vitro”, the fraction remaining at 24 h, 50 µg mL^-1 stood at 8.6 ± 4.4% and the share remaining at 48 h, 50 µg mL^-1 is 3.5 ± 0.8%. In addition, in data set [2], the “HPLC peak of intact peptide” value is given as “still detectable” and the “Time … in whole saliva” value is ≥ 8 h. In data set [1], the “Peptide remaining (band quantification)” value came out at 100.0 ± 0.0% and the “Band of the peptide in the gel” value is “possible to visualize the band”.

(Values after PMC12113730 (Microorganisms, 2025).)
